The values below are quoted from earlier work in patent US20100216641A1, “Low VOC and Stable Plant Growth Regulator Liquid and Granule Compositions” (priority 2009, published 2010).

For the series the following is noted: at 25° C.

With `O=C(Nc1ccccc1)Nc1ccnc(Cl)c1` [CPPU, forchlorfenuron], the water solubility is given as 39 ppm.
